Measured values from the supplement of paper PMC10307832.

What was measured:
Experiment in all cases: relative viability (nuclei count vs DMSO), 5 days (fraction); higher = more cells survive
A-427 = system: A-427
Outline: (§1)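 Lung cancer cell lines were pin-tool dosed in 1536-well plates on the day after seeding, with either a lone drug or a fixed anchor-drug dose plus five library-drug doses (not always all listed) in √10 steps. Nuclei were counted on 4× images after 5 days. Relative viability is the ratio of treated-well to vehicle-well nuclei counts, with each value a median of duplicate plates.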

BEN = system: BEN
Outline: as §1

H3255 = system: H3255
Outline: as §1

HCC-15 = system: HCC-15
Outline: as §1

LC-2-ad = system: LC-2-ad
Outline: as §1

LCLC-97TM1 = system: LCLC-97TM1
Outline: as §1

NCI-H1395 = system: NCI-H1395
Outline: as §1

NCI-H1650 = system: NCI-H1650
Outline: as §1

NCI-H1651 = system: NCI-H1651
Outline: as §1

NCI-H1755 = system: NCI-H1755
Outline: as §1

NCI-H1792 = system: NCI-H1792
Outline: as §1

NCI-H1993 = system: NCI-H1993
Outline: as §1

NCI-H2009 = system: NCI-H2009
Outline: as §1

NCI-H2085 = system: NCI-H2085
Outline: as §1

NCI-H23 = system: NCI-H23
Outline: as §1

NCI-H520 = system: NCI-H520
Outline: as §1

NCI-H647 = system: NCI-H647
Outline: as §1

NCI-H650 = system: NCI-H650
Outline: as §1

NCI-H661 = system: NCI-H661
Outline: as §1

NCI-H727 = system: NCI-H727
Outline: as §1

NCI-H838 = system: NCI-H838
Outline: as §1

PC-3 [JPC-3] = system: PC-3 [JPC-3]
Outline: as §1

RERF-LC-KJ = system: RERF-LC-KJ
Outline: as §1

SK-LU-1 = system: SK-LU-1
Outline: as §1

SK-MES-1 = system: SK-MES-1
Outline: as §1

**Q.** How did the relative viability (A-427; first compound 0.253 µM) turn out when `Nc1cccc2c1CN(C1CCC(=O)NC1=O)C2=O` (configuration not stated) [Lenalidomide] + Cc1nc(Nc2ncc(C(=O)Nc3c(C)cccc3Cl)s2)cc(N2CCN(CCO)CC2)n1 [Dasatinib] (partner 0.075 µM) was run?
**A.** 0.58

**Q.** What about the relative viability (A-427; first compound 0.8 µM) of the same compound?
**A.** 0.851

**Q.** And the relative viability (A-427; first compound 2.53 µM)?
**A.** 0.752

**Q.** What about the relative viability (A-427; first compound 8 µM) of the same compound?
**A.** 0.644

**Q.** And the relative viability (BEN; first compound 0.253 µM)?
**A.** 0.385

**Q.** And the relative viability (BEN; first compound 0.8 µM)?
**A.** 0.258

**Q.** And the relative viability (BEN; first compound 2.53 µM)?
**A.** 0.293

**Q.** What about the relative viability (BEN; first compound 8 µM) of the same compound?
**A.** 0.241

**Q.** And the relative viability (H3255; first compound 0.253 µM)?
**A.** 0.365

**Q.** What about the relative viability (H3255; first compound 0.8 µM) of the same compound?
**A.** 0.32

**Q.** And the relative viability (H3255; first compound 2.53 µM)?
**A.** 0.34

**Q.** And the relative viability (H3255; first compound 8 µM)?
**A.** 0.301

**Q.** And the relative viability (HCC-15; first compound 0.253 µM)?
**A.** 0.629

**Q.** What about the relative viability (HCC-15; first compound 0.8 µM) of the same compound?
**A.** 0.526

**Q.** What about the relative viability (HCC-15; first compound 2.53 µM) of the same compound?
**A.** 0.816

**Q.** And the relative viability (HCC-15; first compound 8 µM)?
**A.** 0.527

**Q.** What about the relative viability (LC-2-ad; first compound 0.253 µM) of the same compound?
**A.** 0.49

**Q.** What about the relative viability (LC-2-ad; first compound 2.53 µM) of the same compound?
**A.** 0.727

**Q.** What about the relative viability (LC-2-ad; first compound 8 µM) of the same compound?
**A.** 0.395

**Q.** And the relative viability (LCLC-97TM1; first compound 0.253 µM)?
**A.** 0.634

**Q.** What about the relative viability (LCLC-97TM1; first compound 0.8 µM) of the same compound?
**A.** 0.939

**Q.** And the relative viability (LCLC-97TM1; first compound 2.53 µM)?
**A.** 0.909

**Q.** What about the relative viability (LCLC-97TM1; first compound 8 µM) of the same compound?
**A.** 0.886

**Q.** What about the relative viability (NCI-H1395; first compound 0.253 µM) of the same compound?
**A.** 0.428

**Q.** What about the relative viability (NCI-H1395; first compound 0.8 µM) of the same compound?
**A.** 0.383

**Q.** What about the relative viability (NCI-H1395; first compound 2.53 µM) of the same compound?
**A.** 0.392

**Q.** What about the relative viability (NCI-H1395; first compound 8 µM) of the same compound?
**A.** 0.367

**Q.** What about the relative viability (NCI-H1650; first compound 0.8 µM) of the same compound?
**A.** 0.241

**Q.** And the relative viability (NCI-H1650; first compound 2.53 µM)?
**A.** 0.316

**Q.** And the relative viability (NCI-H1650; first compound 8 µM)?
**A.** 0.303

**Q.** And the relative viability (NCI-H1651; first compound 0.253 µM)?
**A.** 0.386

**Q.** What about the relative viability (NCI-H1651; first compound 0.8 µM) of the same compound?
**A.** 0.419

**Q.** And the relative viability (NCI-H1651; first compound 2.53 µM)?
**A.** 0.617

**Q.** And the relative viability (NCI-H1651; first compound 8 µM)?
**A.** 0.375

**Q.** And the relative viability (NCI-H1755; first compound 0.253 µM)?
**A.** 0.404

**Q.** And the relative viability (NCI-H1755; first compound 0.8 µM)?
**A.** 0.216

**Q.** What about the relative viability (NCI-H1755; first compound 2.53 µM) of the same compound?
**A.** 0.428

**Q.** What about the relative viability (NCI-H1755; first compound 8 µM) of the same compound?
**A.** 0.33

**Q.** What about the relative viability (NCI-H1792; first compound 0.253 µM) of the same compound?
**A.** 0.8

**Q.** What about the relative viability (NCI-H1792; first compound 0.8 µM) of the same compound?
**A.** 0.69

**Q.** And the relative viability (NCI-H1792; first compound 2.53 µM)?
**A.** 0.893

**Q.** What about the relative viability (NCI-H1792; first compound 8 µM) of the same compound?
**A.** 0.865

**Q.** And the relative viability (NCI-H1993; first compound 0.253 µM)?
**A.** 0.498

**Q.** What about the relative viability (NCI-H1993; first compound 0.8 µM) of the same compound?
**A.** 0.583

**Q.** What about the relative viability (NCI-H1993; first compound 2.53 µM) of the same compound?
**A.** 0.609

**Q.** What about the relative viability (NCI-H1993; first compound 8 µM) of the same compound?
**A.** 0.443

**Q.** And the relative viability (NCI-H2009; first compound 0.253 µM)?
**A.** 0.326

**Q.** What about the relative viability (NCI-H2009; first compound 0.8 µM) of the same compound?
**A.** 0.299

**Q.** And the relative viability (NCI-H2009; first compound 2.53 µM)?
**A.** 0.351

**Q.** What about the relative viability (NCI-H2009; first compound 8 µM) of the same compound?
**A.** 0.284

**Q.** What about the relative viability (NCI-H2085; first compound 0.253 µM) of the same compound?
**A.** 0.253

**Q.** What about the relative viability (NCI-H2085; first compound 0.8 µM) of the same compound?
**A.** 0.259

**Q.** And the relative viability (NCI-H2085; first compound 2.53 µM)?
**A.** 0.243

**Q.** What about the relative viability (NCI-H2085; first compound 8 µM) of the same compound?
**A.** 0.214

**Q.** And the relative viability (NCI-H23; first compound 0.253 µM)?
**A.** 0.857

**Q.** And the relative viability (NCI-H23; first compound 0.8 µM)?
**A.** 0.543

**Q.** What about the relative viability (NCI-H23; first compound 2.53 µM) of the same compound?
**A.** 0.97

**Q.** What about the relative viability (NCI-H23; first compound 8 µM) of the same compound?
**A.** 0.687

**Q.** And the relative viability (NCI-H520; first compound 0.253 µM)?
**A.** 0.188

**Q.** What about the relative viability (NCI-H520; first compound 0.8 µM) of the same compound?
**A.** 0.192

**Q.** And the relative viability (NCI-H520; first compound 2.53 µM)?
**A.** 0.235

**Q.** And the relative viability (NCI-H520; first compound 8 µM)?
**A.** 0.159

**Q.** And the relative viability (NCI-H647; first compound 0.253 µM)?
**A.** 0.14

**Q.** And the relative viability (NCI-H647; first compound 0.8 µM)?
**A.** 0.176

**Q.** What about the relative viability (NCI-H647; first compound 2.53 µM) of the same compound?
**A.** 0.319

**Q.** What about the relative viability (NCI-H647; first compound 8 µM) of the same compound?
**A.** 0.129

**Q.** What about the relative viability (NCI-H650; first compound 0.253 µM) of the same compound?
**A.** 0.459

**Q.** What about the relative viability (NCI-H650; first compound 2.53 µM) of the same compound?
**A.** 0.474

**Q.** And the relative viability (NCI-H650; first compound 8 µM)?
**A.** 0.355

**Q.** What about the relative viability (NCI-H661; first compound 0.253 µM) of the same compound?
**A.** 0.934

**Q.** And the relative viability (NCI-H661; first compound 0.8 µM)?
**A.** 0.854

**Q.** And the relative viability (NCI-H661; first compound 2.53 µM)?
**A.** 0.918

**Q.** What about the relative viability (NCI-H661; first compound 8 µM) of the same compound?
**A.** 0.86

**Q.** And the relative viability (NCI-H727; first compound 0.253 µM)?
**A.** 0.357

**Q.** What about the relative viability (NCI-H727; first compound 0.8 µM) of the same compound?
**A.** 0.326

**Q.** What about the relative viability (NCI-H727; first compound 2.53 µM) of the same compound?
**A.** 0.335

**Q.** What about the relative viability (NCI-H727; first compound 8 µM) of the same compound?
**A.** 0.384

**Q.** And the relative viability (NCI-H838; first compound 0.253 µM)?
**A.** 0.368

**Q.** And the relative viability (NCI-H838; first compound 0.8 µM)?
**A.** 0.301

**Q.** What about the relative viability (NCI-H838; first compound 2.53 µM) of the same compound?
**A.** 0.302

**Q.** And the relative viability (NCI-H838; first compound 8 µM)?
**A.** 0.252

**Q.** What about the relative viability (PC-3 [JPC-3]; first compound 0.253 µM) of the same compound?
**A.** 1

**Q.** And the relative viability (PC-3 [JPC-3]; first compound 0.8 µM)?
**A.** 0.901

**Q.** What about the relative viability (PC-3 [JPC-3]; first compound 2.53 µM) of the same compound?
**A.** 1.08

**Q.** What about the relative viability (PC-3 [JPC-3]; first compound 8 µM) of the same compound?
**A.** 1.04

**Q.** And the relative viability (RERF-LC-KJ; first compound 0.253 µM)?
**A.** 0.777

**Q.** And the relative viability (RERF-LC-KJ; first compound 0.8 µM)?
**A.** 0.746

**Q.** And the relative viability (RERF-LC-KJ; first compound 2.53 µM)?
**A.** 0.828

**Q.** And the relative viability (RERF-LC-KJ; first compound 8 µM)?
**A.** 0.793

**Q.** And the relative viability (SK-LU-1; first compound 0.253 µM)?
**A.** 0.175

**Q.** And the relative viability (SK-LU-1; first compound 0.8 µM)?
**A.** 0.206

**Q.** What about the relative viability (SK-LU-1; first compound 2.53 µM) of the same compound?
**A.** 0.178

**Q.** What about the relative viability (SK-LU-1; first compound 8 µM) of the same compound?
**A.** 0.143

**Q.** What about the relative viability (SK-MES-1; first compound 0.253 µM) of the same compound?
**A.** 0.421

**Q.** What about the relative viability (SK-MES-1; first compound 0.8 µM) of the same compound?
**A.** 0.422

**Q.** And the relative viability (SK-MES-1; first compound 2.53 µM)?
**A.** 0.499

**Q.** And the relative viability (SK-MES-1; first compound 8 µM)?
**A.** 0.413
